# Entries after “also recorded” stand apart in the source; their conditions may differ.
# What was measured:
# MRC-5 cells [1] = assay: Autofluorescence imaging of cells; format: cell-based, human; conditions: BMAA 300 μM, 96 hours
# Protocol: MRC-5 cells were incubated in DMEM supplemented with 300 μM BMAA in the presence or absence of 300 μM L-serine for 96 hours with daily medium changes. Cellular autofluorescence was visualized using an inverted fluorescent microscope (Olympus IX71) as described previously (Dunlop, et al., Biochem J 410, 131-140 (2008)).
# SH-SY5Y cells [2] = assay: Lactate dehydrogenase (LDH) release assay; format: cell-based, human; conditions: BMAA-treated cells
# Protocol: (§1) Lactate dehydrogenase release from cells was determined as described previously (Tang, et al., Phytother Res 25, 417-423 (2010)).
# MRC-5 cells [3] = assay: Lactate dehydrogenase (LDH) release assay; format: cell-based, human; conditions: BMAA-treated cells
# Protocol: as §1
# [4] = Radio-labeled BMAA brain entry and insertion into neuroproteins; format: in vivo; conditions: tritiated and 14C-labeled BMAA, rats
# Source text: Studies testing to determine if L-Serine blocks the misincorporation of radio-tagged BMAA into rodent brains are undertaken.
# zebrafish [5] = assay: Zebrafish swimming performance (critical swimming speed, time to fail); format: in vivo, zebrafish (Dario rerio); conditions: single yolk injection of BMAA, fish reared 3 months, compared to control fish, p<0.001
# Protocol: (§2) BMAA was directly injected through the chorion into the yolk, allowing it to directly compete with L-serine for incorporation into newly synthesized proteins in the developing fish. BMAA (100 mg/ml in water) or water were delivered by an automated Picospritzer pump set to deliver 5 nL per injection into the yolk ([…]) of zebrafish immediately after being fertilized. Fish were left to develop for 30 hours in standard conditions.
# (§3) Surviving fish were reared in an aquarium equipped with biological filtration and temp control set at 28° C. for 3 months. BMAA-treated and control fish from the same parents were reared in the same tanks, then separated based on fluorescent tag prior to swimming assessment. After 3 months all healthy adult fish with no deformations or abnormalities were examined. Critical swimming speed was determined, defined as the maximum swimming velocity that can be sustained for a set period in a water tunnel. Water was pumped from a reservoir (EcoTech Marine MP10 VorTech® Propeller Pump with EcoSmart Driver) through 50 mm diameter tubing. […] The difference in total motor neuron length was quantitated by measuring the first ten motor neuron projections marked before the end of the yolk extension (Paquet D. et al., J. Clin. Invest. 119:1382 (2009)). […] Data was collated in GraphPad Prism (version 6 for OSX) and statistical significance calculated using a Student's T-test. […]
# zebrafish [6] = assay: Zebrafish motor neuron development (fluorescent microscopy); format: in vivo, zebrafish (Dario rerio); conditions: eggs injected with L-BMAA, 30 hours; motor neuron length vs control P<0.0001
# Protocol: as §2, §3
# MRC-5 cells [7] = assay: Acridine orange/ethidium bromide dual-staining of cells; format: cell-based, human; conditions: 500 μM BMAA, 23 hours
# Protocol: MRC-5 cells were incubated in the presence and absence of 500 μM BMAA for 23 hours. After removing the medium, the cells were rinsed once with warm PBS and incubated in a solution of AO/EB then visualized using fluorescent microscopy as described previously (Tang, et al., Phytother Res 25, 417-423 (2010)).
# Drosophila fruit flies = assay: Fruit fly feeding: mortality after three days; format: in vivo, Drosophila melanogaster; conditions: media with 25 mM BMAA, after three days
# Protocol: Preliminary studies show the ability of L-Serine to prevent misincorporation of BMAA into proteins. In a series of feeding experiments, Drosophila fruit flies were fed four different types of media: 1) standard fruit fly media with 0 mM BMAA (control), 2) media enriched with 25 mM L-Serine, 3) media with 25 mM BMAA added, and 4) media with both 25 mM BMAA and 25 mM L-Serine added for three days of feeding. Misincorporation of BMAA into proteins was then analyzed using triple quadrupole LC/MS/MS and Orbital Trap LC/MS/MS.
# Equally interesting is the analysis of the protective value of L-Serine on Drosophila dosed with BMAA. Fruit flies fed with BMAA enriched media (third set of blocks) suffered a 40% mortality after three days, while flies fed with Serine plus BMAA (fourth set of blocks) had no mortality (FIG. 8). These flies were rescued by L-Serine.
# SH-SY5Y cells [8] = assay: Annexin V binding (apoptosis) by flow cytometry; format: cell-based, human
# Protocol: Late-stage apoptosis or necrosis was measured by simultaneous staining with propidium iodide and Annexin V using the BD Pharmingen™ Annexin V—FITC apoptosis detection kit and flow cytometry performed as described previously (Dunlop, et al., Biochem J 435, 207-216 (2010)).
# zebrafish [9] = assay: Zebrafish egg yolk injection: survival; format: in vivo, zebrafish (Dario rerio); conditions: BMAA 100 mg/ml in water, 5 nL injected into yolk after fertilization, 30 hours; control 91%
# Protocol: as §2
# SH-SY5Y cells [10] = assay: Incorporation of 3H-BMAA radiolabel into cell proteins with or without CHX; format: cell-based, human; conditions: 3H-BMAA 31.25 nM, CHX 2 μg/ml, 16 hours
# Protocol: (§4) MRC-5 cells, a human lung fibroblast cell line (passage number 14-19), and SH-SY5Y cells, a human neuroblastoma cell-line (passage number 30-32), were maintained in DMEM, or DMEM/Hams F12 respectively containing 10% fetal bovine serum (FBS), 4 mM L-glutamine, 100 U/mL penicillin, and 100 μg/mL streptomycin at 37° C. in a humidified atmosphere of 5% CO2 and 95% air. Human umbilical vein endothelial cells (HUVEC) were harvested enzymatically with type II collagenase (Sigma-Aldrich) under sterile conditions as described by Minter (Minter, et al., Thromb Haemost 67, 718-723 (1992)) and established as primary cell cultures in M199 (Trace Biosciences, Sydney, Australia) containing 20% FBS, 4 mM L-glutamine, 0.5% endothelial cell growth promoter, 100 U/mL penicillin, and 100 μg/mL streptomycin. All media were prepared with endotoxin-free water (Baxter) and filtered with Zetapor filters (Cuno Life Sciences Division). Cells were seeded at 3×10^5 cells per well in 6 well plates and allowed to adhere overnight (16 hours) before treatment.
# (§5) To determine if incorporation of radiolabel into proteins was protein synthesis dependent MRC-5, SH-SY5Y and HUVEC cells were incubated with ^3H-BMAA (31.25 nM) with or without CHX 2 μg/ml for 16 hours. The amount of radiolabel present in cell proteins in the CHM-treated cultures was expressed relative to that of control cultures, which was set at 100%. […]
# HUVEC = assay: as above; format: cell-based, human; conditions: 3H-BMAA 31.25 nM, CHX 2 μg/ml, 16 hours
# Protocol: as §4, §5
# MRC-5 cells [11] = assay: Incorporation of 3H-BMAA radiolabel into cell proteins (TCA precipitation, liquid scintillation counting); format: cell-based, human; conditions: 16 hours
# Protocol: MRC-5 cells were incubated with ^3H-BMAA (31.25 nM) in HBSS containing 10% FCS. After 2, 4, and 16 hours, cells were washed three times in phosphate buffered saline and lysed by freeze-thawing in Triton X-100. The protein concentration in the lysate was determined using the bicinchoninic acid assay (BCA) (Smith, et al., Anal Biochem 150, 76-85 (1985)) (and radiolabel in the cell lysate quantified by liquid scintillation counting (LSC). Cell proteins were then isolated by trichloroacetic acid (TCA) (5%) precipitation washed three times in TCA (5%) and dissolved in formic acid.
# To determine if incorporation of radiolabel into proteins was protein synthesis dependent MRC-5, SH-SY5Y and HUVEC cells were incubated with ^3H-BMAA (31.25 nM) with or without CHX 2 μg/ml for 16 hours. The amount of radiolabel present in cell proteins in the CHM-treated cultures was expressed relative to that of control cultures, which was set at 100%. Parallel cultures of MRC-5 cells were incubated with ^3H-leucine (41 nM) with or without CHX 2 μg/ml under identical culture conditions and processed as before.
# To examine the ability of individual amino acids to reduce incorporation or radiolabel into proteins, MRC-5 cells were incubated with ^3H-BMAA (31.25 nM) for 16 hours in the presence of individual amino acids (250 μM) and the radiolabel present in the cell proteins assessed as before. All of the 20 protein amino acids (L-isomers) were examined individually in triplicate cell cultures. […] Incorporation of radiolabel was determined relative to cells incubated in medium containing no serine. MRC-5 cells were then incubated with ^3H-BMAA (31.25 nM) for 16 hours in HBSS alone, HBSS containing all 20 protein amino acids (400 μM) or 19 protein amino acids except L-serine and the amount of radiolabel in cell protein assessed as before.
# MRC-5 cells [12] = assay: Protein-bound non-labeled BMAA in hydrolysed cell proteins by triple quadrupole LC/MS/MS; format: cell-based, human; conditions: BMAA 250-1000 μM with L-serine 250-1000 μM, or CHX
# Protocol: After incubation with ^3H-BMAA or cold BMAA, cells were washed three times with PBS, lysed by freeze thawing in Triton-X-100 (0.1%) and cell proteins precipitated in TCA (5%). Protein pellets were washed three times with TCA (5%) and hydrolysed in boiling 6 M HCl at 110° C. for 16 hours as previously described (Mondo, et al., Mar Drugs 10, 509-520 (2012)). Protein pellets were freeze-dried and reconstituted in 20 mM HCl. Particulates were removed by centrifugation through […] membranes and the hydrolysate derivatized in AccQ·Tag (Waters Corporation, Australia). Amino acids were separated on a Waters C-18 column using a method and gradient as described previously (Mondo, et al., Mar Drugs 10, 509-520 (2012)). For recovery of radiolabel in hydrolysed samples, fractions were collected manually every minute for 40 minutes, diluted into 5 ml scintillant (Ultima Gold™ scintillant, Perkin Elmer) and disintegrations per minute (DPM) determined by LSC.
# To further confirm that BMAA was present in cell proteins and incorporation was inhibited by L-serine, MRC-5 cells were incubated with a range of concentrations of BMAA (250-1000 μM) or BMAA with L-serine (250-1000 μM) and hydrolysed cell proteins were analyzed by tandem mass spectroscopy on a triple quadrupole LC/MS/MS. […]
# [13] = mice, single injection (Karlsson et al. 2009); cited from earlier work
smiles,measurement,setting,value
"CNC[C@H](N)C(=O)O [BMAA, β-methylamino-L-alanine]",formation of autofluorescent bodies,MRC-5 cells [1],autofluorescent bodies were evident; also recorded: Autofluorescence was observed
same,"necrosis, LDH release",SH-SY5Y cells [2],no significant changes
same,"necrosis, LDH release",MRC-5 cells [3],no significant changes
same,crossing of the blood-brain barrier,[4],rapidly cross the blood-brain barrier
same,insertion into neuroproteins,[4],inserted into neuroproteins
same,"swimming performance, time to fail",zebrafish [5],significant impairment; also recorded: impairs zebrafish swimming performance
same,motor neuron development,zebrafish [6],truncated neurons
same,morphological changes and pale cells indicative of apoptosis,MRC-5 cells [7],increased number; also recorded: morphological changes
same,mortality,Drosophila fruit flies,40%
same,Annexin V staining (apoptosis),SH-SY5Y cells [8]; 500 μM BMAA alone,increased staining; also recorded: significant increase
same,zebrafish viability (survival),zebrafish [9],74%
"C[C@@H]1C[C@@H]([C@H](O)CC2CC(=O)NC(=O)C2)C(=O)[C@@H](C)C1 [CHX, cycloheximide]",effect on protein association of 3H-BMAA,SH-SY5Y cells [10],inhibited
same,effect on protein association of 3H-BMAA,HUVEC,inhibited
same,effect on amount of 3H-BMAA radiolabel in the protein fraction,"MRC-5 cells [11]; 3H-BMAA 31.25 nM, CHX 2 μg/ml, relative to no CHX",significantly reduced; also recorded: inhibition of incorporation of radiolabel into cell protein
same,"inhibition of incorporation of 3H-leucine into proteins, compared with 3H-BMAA","MRC-5 cells [11]; 3H-leucine 41 nM, CHX 2 μg/ml",to the same extent
same,effect on BMAA-induced Annexin V binding / apoptosis,"SH-SY5Y cells [8]; 500 μM BMAA, co-incubation with CHX 2 μg/mL or L-serine 50 μM",abrogated; also recorded: significantly reduced
same,effect on incorporation of non-labeled BMAA into cell proteins,MRC-5 cells [12],inhibited
"N[C@H](CO)C(=O)O [D-Serine, D-serine]",effect on incorporation of 3H-BMAA into protein,"MRC-5 cells [11]; 3H-BMAA 31.25 nM, 250 μM D-serine",did not prevent incorporation
CNC[C@H](N)C(=O)O [^3H-BMAA],tissue distribution pattern,[13],a distribution pattern similar to that of a protein-forming amino acid

# From patent US11974551B2, “L-serine compositions, methods and uses for treating neurodegenerative diseases and disorders” (priority 2011, dated 2024)
